{"source": "patent US20240050440A1", "about": "“THERAPEUTIC TARGETS AND AGENTS FOR THE TREATMENT OF TRIOSEPHOSPHATE ISOMERASE (TPI) DEFICIENCY” (University of Pittsburgh- Of The Commonwealth System of …, priority 2020, published 2024)", "key": {"[1]": {"tested_on": "TPI^E105D-GFP fusion protein", "experiment": "HEK293 TPI^E105D-GFP high content assay (GFP intensity per cell)", "format": "cell-based, human", "details": "for repeat of hit activity in every condition: NIH Clinical Collection, 10 μM and 1 μM, 24 hours and 48 hours; for hit call in LOPAC screen: 10 μM, 48 hour condition; for TPI^E105D-GFP fluorescence (in words): prescreen of putative protein stabilizing compounds, 48 hours", "description": "HEK293 cells expressing a mutant (E105D) TPI-GFP fusion protein were created using the Flp-In System (Invitrogen, Catalog #K6010-01 and K6010-02) following the manufacturer's protocol. Briefly, a host cell line expressing the transfected Flp-In target site vector, pFRT/lacZeo, was obtained following zeocin resistance selection. TPI^E105D-GFP fusion construct was cloned into the pcDNA 5/FRT expression vector. Co-transfection of 0.1 μg of the pcDNA 5/FRT construct (390 ng/μL) and 0.9 μg of the Flp recombinase expression vector (pOG44, 127 ng/μL) into the Flp-In host cell line was performed with 3.75 μL Lipofectamine 2000 reagent (Invitrogen). A hygromycin dose response was performed to determine the minimum concentration of hygromycin B required to kill untransfected host cells. […] Expression of the TPI^E105D-GFP fusion protein was verified via Western blot. The cells were cultured using standard methods (37° C., 5% CO2) in normal media (DMEM with 10% serum, 100 U penicillin/100 μg streptomycin/ml (Lonza)). To document subcellular localization of mutant GFP-tagged TPI, nuclei were stained with Hoechst 33342 and imaged on an ImageXpress Ultra confocal high content reader in the UV and GFP channel, respectively. A z-series of images (60× objective, 90 planes, 0.3 μm z-steps) was acquired in both channels, and the color combined stack subjected to 3D reconstruction in MetaXpress. A single slice of the reconstructed image was chosen to illustrate the phenotype of mutant TPI-GFP expression.\nHEK293 TPI^E105D-GFP cells were plated (50,000 cells/well in collagen-coated 96-well thin-bottom microplates and allowed to attach overhight. Cells were treated with four point, two-fold gradients of 5× treatment solutions of test agents (6 replicates per condition). The final concentration of vehicle was 0.2%. After 48 hours in culture, cells were preincubated with propidium iodide (PI) for 30 minutes and imaged live in the GFP and Texas Red channels on an ImageXpress Ultra high content reader (Molecular Devices) using a 20× objective Images were analyzed with the multiwavelength cell scoring application using GFP to define and enumerate cells. The integrated GFP intensity per cell was used to quantify mutant TPI expression; the number of cells was used as a proxy for growth inhibition and/or cell loss; and the percentage of cells that exceeded a threshold for PI based on vehicle-treated controls was used to measure acute toxicity (necrosis).\nAssay ready daughter plates of the NIH Clinical Collection containing 2 μL of a 1 mM DMSO stock were reconstituted in DMEM (60 μL) to yield a 30 μM intermediate treatment concentration. 60 μl of DMSO (3%) was added to columns 1 and 24, and 60 μL of 600 nM luminespib was added to columns 2 and 23 to serve as negative and positive controls, respectively. Aliquots (15 μl) were transferred directly to cells in 384 well plates using an Agilent Bravo liquid handling robot (final concentration in assay, 10 μM). For the 1 μM condition, an aliquot of the 30 μM treatment solution was diluted 1:10 and controls added as above. Aliquots (15 μl) were transferred to cells to yield a […] final concentration. Plates were centrifuged for 30 seconds at 200×g and incubated at 37° C. After 24 hours, plates were imaged live in the GFP channel and returned to the incubator; after 48 hours cells were stained with PI, imaged live in the GFP and PI channels, and analyzed as described above. The LOPAC library was screened using the same procedure except that only the 10 μM, 48 hour condition was used.\nA pilot library screen was performed using the NIH Clinical Collection in the HEK TPI^E105D-GFP cell line. The NIH Clinical Collection maintained at the UPDDI contains 446 FDA approved drugs and small molecules that have a history of use in human clinical trials. The collections were assembled through the Molecular Libraries and Imaging Initiative as part of its mission to enable the use of compound screens in biomedical research. […]"}, "[2]": {"tested_on": "TPI^E105D-GFP fusion protein", "experiment": "HEK293 TPI^E105D-GFP high content assay (GFP intensity per cell)", "format": "cell-based, human", "details": "fresh repurchased samples, ten-point twofold dose-response"}, "[3]": {"details": "Luo et al. 2015; said to correlate with concentrations needed to increase TPI^E105D-GFP in HEK cells; cited from earlier work"}, "TPI^E105D-GFP": {"tested_on": "TPI^E105D-GFP", "experiment": "High-content analysis in U2OS TPI^E105D-GFP cells", "format": "cell-based, human", "details": "48 hours", "description": "U2OS osteosarcoma cells (ATCC HTB-96) engineered to express the mutant (E105D) TN-GFP protein were generated using the identical method described above for HEK cells and maintained in McCoy's 5A medium (ThermoFisher 16600082).\n(§1) FB303 cells were plated (1000/well) in a 384 well collagen-coated microplate. Cells were treated with vehicle (DMSO) or ten-point, two-fold gradients of test compounds for 48 hours in quadruplicates. Cells were fixed with 4% formaldehyde and immunostained with an anti-TPI antibody (Santa Cruz sc-30145) followed by a Cy3-conjugated goat anti-rabbit secondary (Jackson Immunoresearch). Nuclei were counterstained with Hoechst 33342 Images were acquired on an OPERA Phenix high-content imager (20× air objective, widefield, 4 fields/well) and analyzed for total cellular GFP intensity (HEK and U2OS) or total cellular Cy3 intensity (FB303) using Harmony 5.0 image analysis software (Perkin Elmer)."}, "TPI": {"tested_on": "TPI", "experiment": "High-content analysis of TPI levels in patient fibroblasts by immunocytochemistry", "format": "cell-based, human", "details": "48 hours", "description": "as §1"}, "TPI^sugarkill": {"tested_on": "TPI^sugarkill", "experiment": "Isolation and visualization of poly-ubiquitinated TPI from MG132-fed flies", "format": "in vivo, Drosophila melanogaster", "details": "flies fed 1 mg/mL MG132 for 24 hours at 25° C. or 29° C.; immunoprecipitation and Western blot", "description": "Conjugated anti-TPI resin was prepared with TPI antibody (FL249, Santa Cruz Biotechnology) and the Pierce co-immunoprecipitation kit. Homozygous TPI^sugarkill flies were fed 1 mg/mL MG132 (Sigma) on 10% sucrose for 24 hours at 25° C. or 29° C. Following incubation, flies were homogenized using a mechanical homogenizer in Pierce co-immunoprecipitation lysis buffer with Protease Inhibitor Mini-Tablets (Pierce), MG132 (0.1 mg/mL, Sigma) and NEM (1 μM, Sigma). Protein concentration was determined by BCA assay (Pierce). The lysates (2 mg) were incubated on a rotator overnight at 4° C. with 100 μl of the conjugated anti-TPI resin. The columns were washed three times with 200 μL of Pierce IP wash buffer with Protease Inhibitor Mini-Tablets (Pierce), MG132 (0.1 mg/mL) and 1 μM NEM. A bead only control provided by the Pierce IP kit served as a negative control. The samples were eluted into 2×SDS-PAGE sample buffer (130 mM Tris (pH 6.8), 4% SDS, 4% beta-mercaptoethanol, 20% glycerol, 0.1% bromophenol blue) with Protease Inhibitor Mini-Tablets (Pierce), MG132 (0.1 mg/mL, Sigma) and NEM (1 μM, Sigma). Western blots were conducted as described above with the exception that the blots were boiled in distilled water for 30 minutes prior to blocking. The antibody used for detection of ubiquitin was anti-ubiquitin (1:1000, 6C1 mouse Santa Cruz Biotechnology). […]"}}, "note": "Where a SMILES comes first, the peptide text is derived from it. The star is where a group is joined. Cbz = O=C(OCc1ccccc1)*", "data": [{"compound": "O=C(O)C[C@H](O)C[C@H](O)/C=C/c1c(C2CC2)nc2ccccc2c1-c1ccc(F)cc1", "note": "[itavastatin]", "values": [{"measurement": "repeat of hit activity in every condition", "setting": "[1]", "result": "repeated in every condition"}, {"measurement": "concentration dependence of TPI^E105D-GFP increase", "setting": "[2]", "result": "concentration-dependent increases"}, {"measurement": "peak plasma levels in humans", "setting": "[3]", "result": 0.55, "unit": "µM"}]}, {"compound": "C[C@H]1[C@H](OC(=O)CCC(=O)O)O[C@@H]2O[C@@]3(C)CC[C@H]4[C@H](C)CC[C@@H]1[C@@]24OO3", "note": "[artesunate, 4-oxo-4-[[(1R,4S,5R,8S,9R,10S,12R,13R)-1,5,9-trimethyl-11,14,15,16-tetraoxatetracyclo[10.3.1.0^4,13.0^8,13]hexadecan-10-yl]oxy]butanoic acid]", "values": [{"measurement": "repeat of hit activity in every condition", "setting": "[1]", "result": "repeated in every condition"}, {"measurement": "dose-response confirmation of activity, total GFP levels per cell", "setting": "TPI^E105D-GFP", "result": "confirmed activity"}, {"measurement": "dose-response confirmation of activity, total anti-TPI fluorescence", "setting": "TPI", "result": "confirmed activity"}]}, {"compound": "CC[C@H](C)C(=O)O[C@H]1CCC=C2C=C[C@H](C)[C@H](CC[C@@H]3C[C@@H](O)CC(=O)O3)[C@H]21", "note": "[mevastatin]", "values": [{"measurement": "hit call in LOPAC screen", "setting": "[1]", "result": "positive hits"}]}, {"compound": "Oc1ccc(/C=C/c2cc(O)cc(O)c2)cc1", "note": "[resveratrol, 3,5,4′-trihydroxy-trans-stilbene]", "values": [{"measurement": "hit call in LOPAC screen", "setting": "[1]", "result": "positive hits"}, {"measurement": "dose-response confirmation of activity, total GFP levels per cell", "setting": "TPI^E105D-GFP", "result": "confirmed activity"}, {"measurement": "dose-response confirmation of activity, total anti-TPI fluorescence", "setting": "TPI", "result": "confirmed activity"}, {"measurement": "concentration dependence of TPI^E105D-GFP increase", "setting": "[2]", "result": "concentration-dependent increases"}]}, {"compound": "C[C@@H]1C[C@@H]([C@H](O)CC2CC(=O)NC(=O)C2)C(=O)[C@@H](C)C1", "note": "[cycloheximide]", "values": [{"measurement": "TPI^E105D-GFP fluorescence (in words)", "setting": "[1]", "result": "significant increase"}]}, {"compound": "COc1ccccc1OCCNCC(O)COc1cccc2[nH]c3ccccc3c12", "note": "(stereo not shown) [carvedilol]", "values": [{"measurement": "repeat of hit activity in every condition", "setting": "[1]", "result": "repeated in every condition"}]}, {"compound": "CC(C)C[C@@H](C=O)NC(=O)[C@H](CC(C)C)NC(=O)[C@H](CC(C)C)NC(=O)OCc1ccccc1", "note": "[MG132] (Cbz-Leu-Leu-Leu-aldehyde)", "values": [{"measurement": "polyubiquitinated TPI^sugarkill signal", "setting": "TPI^sugarkill", "result": "accumulation of polyubiquitinated signal"}]}, {"compound": "CC(C)C[C@H](NC(=O)[C@H](Cc1ccccc1)NC(=O)c1cnccn1)B(O)O", "note": "[bortezomib]", "values": [{"measurement": "TPI^E105D-GFP fluorescence (in words)", "setting": "[1]", "result": "significant increase"}]}, {"compound": "Cc1[nH]c(=O)c(C#N)cc1-c1ccncc1", "note": "[milrinone]", "values": [{"measurement": "repeat of hit activity in every condition", "setting": "[1]", "result": "repeated in every condition"}]}]}
